Results as given in patent US20260284091A1, “IMIDAZOLE LOADED GLYCYRRHIZIC ACID HYDROGELS” (KATHOLIEKE UNIVERSITEIT LEUVEN, priority 2023, published 2026).

Key:
Assay in all cases: Growth inhibition and biocidal activity evaluation of glycyrrhizic acid hydrogels
[1] = test system: Streptococcus pyogenes LMG 14237; assay type: cell-based
Excerpt: (§1) Escherichia coli UTI89, Pseudomonas aeruginosa LMG9009, Staphylococcus aureus ATCC6538, Klebsiella pneumoniae ATCC13883, Klebsiella aerogenes ATCC13048, Acinetobacter baumannii RD5SR3. Enterococcus faecalis LMG8148, Streptococcus pyogenes LMG 14237 and clinical isolates of a Staphylococcus epidermidis and a methicillin resistant S. aureus (MRSA), isolated from osteomyelitis patients were used. Prior to the experiments, all strains, except S. pyogenes were inoculated in Lysogeny broth (LB) and incubated overnight on 37° C. (200 rpm). Overnight cultures of S. pyogenes were grown micro-aerophilic in Brain-Heart infusion broth (BHI). Thereafter, the bacteria were normalized to roughly 5*10^5 CFU mL^−1. Lysogeny broth (LB; 10 g L^−1 NaCl, 10 g L^−1 Tryptone, 5 g L^−1 Yeast Extract) was used to create overnight cultures (ONC). Mueller Hinton Broth (MHB; 21 g L^−1 MHB) was used for the minimal inhibitory concentration (MIC) assays for all strain except S. pyogenes. For this strain, BHI was used. If LB agar, BHI agar or MHB agar was needed, 15 g L^−1 of bacteriological agar was added. MHB or BHI batches with varying pH were made by adding HCl or NaOH to acidify or alkalify the medium to the desired pH-value, respectively. Three different formulations of the glycyrrhizic acid hydrogels were made in dH2O:
(§2) (i) Hydrogel C with pH=3, (ii) Hydrogel B with pH=3.8 and (iii) Hydrogel A with pH=4.2. pH was measured at 70° C. and varied using HCl or NaOH to acidify or alkalify the formulation to the desired pH-value. Moreover, different concentration batches (mass by volume) were used for the hydrogels: 2.5%, 5%, 7,5%, 10%, 15% and 20%. Glycyrrhizic acid in solution—not a hydrogel—was prepared at pH 7,4.
(§3) To determine the growth inhibiting activity of glycyrrhizic acid in solution, 100 μL of different 1:2 dilutions of a 100 mg/mL stock solution of glycyrrhizic acid in MHB were added to the wells of a 96 well microtiter plate, after which 100 μL of a 5*10^5 CFU mL^−1 bacteria suspension in MHB was added to each well.
(§4) To determine the growth inhibiting activity of the glycyrrhizic acid hydrogels, the hydrogel was liquefied by heating to 70° C. When liquid, varying volumes of the liquid hydrogel (80 μL to 160 μL) were pipetted into a 96 well microtiter plate. After the hydrogel solidified, 120 μL of a 5*10^5 CFU mL^−1 bacteria suspension in MHB was added on top of the hydrogel.
(§5) To avoid evaporation, the plates were sealed using a membrane (Greiner Bio-one NV). After 24 hours of incubation (37° C., 200 rpm), the OD595 was measured and relative OD595 was calculated by dividing the OD595 by the average OD595 of the growth control (=growth of cells in MHB without glycyrrhizic acid).
(§6) To determine the biocidal activity of glycyrrhizic acid in solution and in hydrogel, at the end of the growth inhibition assay (see above), after incubation, 100 μL of the medium on top of the hydrogel was diluted 10 times in Phosphate saline buffer (PBS; 1.24 g L^−1 K2HPO4. 0.39 g L^−1 KH2PO4. 8.8 g L^−1 NaCl) and plated out on MHB agar plates by spreading 100 μL of the dilution. After incubating overnight at 37° C., colonies were counted and the colony forming units were determined.

[2] = test system: Klebsiella pneumoniae ATCC13883; assay type: cell-based; conditions: K. pneumoniae; bactericidal = 3 LOG reduction compared to the inoculum
Excerpt: as §1, §2, §3, §4, §5, §6

[3] = test system: Klebsiella aerogenes ATCC13048; assay type: cell-based; conditions: K. aerogenes; bactericidal = 3 LOG reduction compared to the inoculum
Excerpt: as §1, §2, §3, §4, §5, §6

[4] = test system: Acinetobacter baumannii RD5SR3; assay type: cell-based; conditions: A. baumannii; bactericidal = 3 LOG reduction compared to the inoculum
Excerpt: as §1, §2, §3, §4, §5, §6

[5] = test system: Staphylococcus epidermidis; assay type: cell-based; conditions: S. epidermidis; bactericidal = 3 LOG reduction compared to the inoculum
Excerpt: as §1, §2, §3, §4, §5, §6

Escherichia coli UTI89 = assay type: cell-based; conditions: E. coli; bactericidal = 3 LOG reduction compared to the inoculum
Excerpt: as §1, §2, §3, §4, §5, §6

[6] = test system: Enterococcus faecalis LMG8148; assay type: cell-based; conditions: bactericidal = 3 LOG reduction compared to the inoculum
Excerpt: as §1, §2, §3, §4, §5, §6

[7] = test system: Pseudomonas aeruginosa LMG9009; assay type: cell-based; conditions: P. aeruginosa; bactericidal = 3 LOG reduction compared to the inoculum
Excerpt: as §1, §2, §3, §4, §5, §6

MRSA = assay type: cell-based, Methicillin-resistant Staphylococcus aureus; conditions: bactericidal = 3 LOG reduction compared to the inoculum
Excerpt: Escherichia coli UTI89, Pseudomonas aeruginosa LMG9009, Staphylococcus aureus ATCC6538, Klebsiella pneumoniae ATCC13883, Klebsiella aerogenes ATCC13048, Acinetobacter baumannii RD5SR3. Enterococcus faecalis LMG8148, Streptococcus pyogenes LMG 14237 and clinical isolates of a Staphylococcus epidermidis and a methicillin resistant S. aureus (MRSA), isolated from osteomyelitis patients were used. Prior to the experiments, all strains, except S. pyogenes were inoculated in Lysogeny broth (LB) and incubated overnight on 37° C. (200 rpm). Overnight cultures of S. pyogenes were grown micro-aerophilic in Brain-Heart infusion broth (BHI). Thereafter, the bacteria were normalized to roughly 5*10^5 CFU mL^−1. Lysogeny broth (LB; 10 g L^−1 NaCl, 10 g L^−1 Tryptone, 5 g L^−1 Yeast Extract) was used to create overnight cultures (ONC). […]
(i) Hydrogel C with pH=3, (ii) Hydrogel B with pH=3.8 and (iii) Hydrogel A with pH=4.2. pH was measured at 70° C. and varied using HCl or NaOH to acidify or alkalify the formulation to the desired pH-value. […]
To avoid evaporation, the plates were sealed using a membrane (Greiner Bio-one NV). After 24 hours of incubation (37° C., 200 rpm), the OD595 was measured and relative OD595 was calculated by dividing the OD595 by the average OD595 of the growth control (=growth of cells in MHB without glycyrrhizic acid). […]

CC1(C)[C@@H](O[C@H]2O[C@H](C(=O)O)[C@@H](O)[C@H](O)[C@H]2O[C@@H]2O[C@H](C(=O)O)[C@@H](O)[C@H](O)[C@H]2O)CC[C@]2(C)[C@H]3C(=O)C=C4[C@@H]5C[C@@](C)(C(=O)O)CC[C@]5(C)CC[C@@]4(C)[C@]3(C)CC[C@@H]12 [GLY in solution, glycyrrhizic acid]
growth inhibition ([1]; 50 mg/mL in solution, pH 7.0, only one of nine pathogens tested that was inhibited): inhibited
antibacterial effect (no effect, bacteriostatic, bactericidal) ([1]; Streptococcus, bactericidal = 3 LOG reduction compared to the inoculum): Bacteriostatic
antibacterial effect (no effect, bacteriostatic, bactericidal) [2]: No effect
antibacterial effect (no effect, bacteriostatic, bactericidal) [3]: No effect
antibacterial effect (no effect, bacteriostatic, bactericidal) [4]: No effect
antibacterial effect (no effect, bacteriostatic, bactericidal) [5]: No effect
antibacterial effect (no effect, bacteriostatic, bactericidal) (Escherichia coli UTI89): No effect
antibacterial effect (no effect, bacteriostatic, bactericidal) [6]: No effect
antibacterial effect (no effect, bacteriostatic, bactericidal) [7]: No effect
antibacterial effect (no effect, bacteriostatic, bactericidal) (MRSA): No effect
